Laboratory results published in patent US8962844B2, “1,3,4-oxadiazole and 1,3,4-thiadiazole β-lactamase inhibitors” (priority 2012, dated 2015).
Counter-ions that a name gives are not always drawn.

How the values were obtained:
[1] = test system: bacterial strains that express KPC β-lactamases; assay: Standard BLI potentiation MIC / synergy MIC (sMIC) assays run in the presence of a β-lactam, KPC expressing strains; format: cell-based; details: more active for at least one KPC strain and/or better spectrum of activity than Avibactam; BLI in combination with a β-lactam
Source text: (§1) Unless otherwise indicated, the activity of the BLI compounds can be described by the MIC value obtained from a Synergy MIC assay or a BLI potentiation assay (e.g as described herein), both of which are run in the presence of a β-lactam.
(§2) A set of β-lactamase expressing isogenic E. coli strains was constructed by cloning a β-lactamase gene into a customized derivative of pBR322 (GenBank Accession Number J01749) and transforming the engineered plasmids into E. coli. The NdeI restriction site within the plasmid backbone of pBR322 was removed to generate pBR322 ΔNdeI. The pBR322 ΔNdeI vector itself, minus the blaTEM-1 gene, was amplified using two primers: (1) pBR-Pbla 5′-cgcatatgactettectttttcaatattattg-3, SEQ ID 1, a primer with an engineered NdeI restriction site at the 3′ end of the blaTEM-1 promoter and (2) pBR-vec-1 5′-[…]-3′, SEQ ID 2, a primer with an engineered BamHI restriction site at the 3′ end of the blaTEM-1 open reading frame. The chloramphenicol resistance gene, cat, was generated by PCR amplification from pKD3 (GenBank Accession Number AY048742) using primers with an engineered NdeI restriction site at the 5′ end (Pbla-cat 5′-[…]-3′, SEQ ID 3) and an engineered BamHI restriction site at the 3′ end (Vec-1-cat 5′-[…]-3′, SEQ ID 4) of the resistance gene. The two PCR products, pBR322 ΔNdeI and cat were ligated together generating pBR-CBST (pBR322 ΔNdeI ΔTEM-1::cat Seq. ID 5) which retains both the pBR322 tetracycline resistance cassette, tetA, and the plasmid origin of replication but the blaTEM-1 gene was replaced by the cat gene.
(§3) Using this engineering strategy a number of plasmids producing β-lactamase genes from different classes (see below) were generated using synthetic genes with an engineered NdeI restriction site at the 5′ end and BamHI restriction site at the 3′ end of each gene (GenScript). Both the synthetic β-lactamase genes and cat gene were ligated into the NdeI/BamHI sites of the pBR322 ΔNdeI PCR product and transformed into electrocompetent E. coli ElectroMax DH10B (Invitrogen/Life Technologies). E. coli DH10B harboring the recombinant plasmids were selected on LB agar (supplemented with 25 μg/mL tetracycline) and single isolated colonies were then inoculated into 5 mL LB media (supplemented with 25 μg/mL tetracycline), and incubated at 37° C. with aeration (250 rpm) for 18 hrs. The cultures were frozen back at −80° C. in 20% glycerol. The DNA sequence of the cloned β-lactamase genes was confirmed. The β-lactamase gene expression in the recombinant E. coli strains was driven by the blaTEM-1 promoter in the pBR-CBST plasmid and was characterized by MIC profiling of the E. coli recombinant strains against comparator β-lactam/BLI combinations in broth microdilution assay.
(§4) The experimental protocol was performed according to Clinical and Laboratory Standards Institute (CLSI) guidelines with modifications as described below (CLSI guidelines can be derived from the CLSI document M07-A9 published in January 2012: “Methods for Dilution Antimicrobial Susceptibility Tests for Bacteria That Grow Aerobically; Approved Standard-Ninth Edition”).
(§5) To prepare for MIC testing, frozen glycerol stocks of clinical isolates (Klebsiella pneumoniae, Eschericia coli, Enterobacter spp, Citrobacter spp, or Pseudomonas aeruginosa) were used to streak for isolated colonies on rich, non-selective, tryptic soy agar containing 5% sheep's blood (TSAB). Frozen glycerol stocks of laboratory engineered, isogenic E. coli strains, which contain cloned β-lactamase expressing plasmids were used to streak for isolated colonies on rich, selective LB agar supplemented with 25 μg/mL tetracycline to maintain the plasmid. All strains were incubated at 37° C. for 18-24 hrs.
(§6) On the day of testing, primary cultures were started by scraping off 5-10 colonies from the TSAB plates containing clinical strains or the tetracycline supplemented LB plates containing engineered strains. […]

[2] = test system: bacterial strains that express the class D cephalosporinase OXA-15; assay: Standard BLI potentiation MIC / synergy MIC (sMIC) assays run in the presence of a β-lactam, OXA-15 expressing strains; format: cell-based, E. coli; details: BLI in combination with a β-lactam; comparison with Avibactam (comparator compound CCC)
Source text: as §1, §2, §3, §4, §5, §6

| SMILES | activity and/or spectrum of activity against bacterial strains that express KPC β-lactamases, compared with Avibactam [1] | activity against bacterial strains that express the class D cephalosporinase OXA-15, compared with Avibactam [2] |
| --- | --- | --- |
| O=C1N2C[C@@H](CC[C@H]2c2nnc(CNC3CNC3)o2)N1OS(=O)(=O)O [Compound 726, (2S,5R)-2-(5-((azetidin-3-ylamino)methyl)-1,3,4-oxadiazol-2-yl)-7-oxo-1,6-diazabicyclo[3.2.1]octan-6-yl hydrogen sulfate] | more active than Avibactam | more active than Avibactam |
| N[C@H]1C[C@H](c2nnc([C@@H]3CC[C@@H]4CN3C(=O)N4OS(=O)(=O)O)o2)C1 [Compound 727, (2S,5R)-2-(5-((1r,3S)-3-aminocyclobutyl)-1,3,4-oxadiazol-2-yl)-7-oxo-1,6-diazabicyclo[3.2.1]octan-6-yl hydrogen sulfate] | more active than Avibactam | more active than Avibactam |
| N[C@H]1C[C@@H](Cc2nnc([C@@H]3CC[C@@H]4CN3C(=O)N4OS(=O)(=O)O)o2)C1 [Compound 728, (2S,5R)-2-(5-(((1s,3R)-3-aminocyclobutyl)methyl)-1,3,4-oxadiazol-2-yl)-7-oxo-1,6-diazabicyclo[3.2.1]octan-6-yl hydrogen sulfate] | more active than Avibactam | more active than Avibactam |
| N[C@@H]1CC[C@H](c2nnc([C@@H]3CC[C@@H]4CN3C(=O)N4OS(=O)(=O)O)o2)C1 [Compound 729, (2S,5R)-2-(5-((1S,3R)-3-aminocyclopentyl)-1,3,4-oxadiazol-2-yl)-7-oxo-1,6-diazabicyclo[3.2.1]octan-6-yl hydrogen sulfate] | more active than Avibactam | more active than Avibactam |
| N=C(N)NCC(O)Cc1nnc([C@@H]2CC[C@@H]3CN2C(=O)N3OS(=O)(=O)O)o1 (stereo partly drawn) [Compound 730, (2S,5R)-2-(5-(3-guanidino-2-hydroxypropyl)-1,3,4-oxadiazol-2-yl)-7-oxo-1,6-diazabicyclo[3.2.1]octan-6-yl hydrogen sulfate] | more active than Avibactam | more active than Avibactam |
| N=C(N)NC[C@@H](O)c1nnc([C@@H]2CC[C@@H]3CN2C(=O)N3OS(=O)(=O)O)o1 [Compound 731, (2S,5R)-2-(5-((R)-2-guanidino-1-hydroxyethyl)-1,3,4-oxadiazol-2-yl)-7-oxo-1,6-diazabicyclo[3.2.1]octan-6-yl hydrogen sulfate] | more active than Avibactam | more active than Avibactam |
| N=C(N)NC[C@H](O)c1nnc([C@@H]2CC[C@@H]3CN2C(=O)N3OS(=O)(=O)O)o1 [Compound 732, (2S,5R)-2-(5-((S)-2-guanidino-1-hydroxyethyl)-1,3,4-oxadiazol-2-yl)-7-oxo-1,6-diazabicyclo[3.2.1]octan-6-yl hydrogen sulfate] | more active than Avibactam | more active than Avibactam |
| CNCCCc1nnc([C@@H]2CC[C@@H]3CN2C(=O)N3OS(=O)(=O)O)o1 [Compound 734, (2S,5R)-2-(5-(3-(methylamino)propyl)-1,3,4-oxadiazol-2-yl)-7-oxo-1,6-diazabicyclo[3.2.1]octan-6-yl hydrogen sulfate] | more active than Avibactam | more active than Avibactam |
| NCCCCc1nnc([C@@H]2CC[C@@H]3CN2C(=O)N3OS(=O)(=O)O)o1 [Compound 735, (2S,5R)-2-(5-(4-aminobutyl)-1,3,4-oxadiazol-2-yl)-7-oxo-1,6-diazabicyclo[3.2.1]octan-6-yl hydrogen sulfate] | more active than Avibactam | more active than Avibactam |
| O=C1N2C[C@@H](CC[C@H]2c2nnc(CCNCCO)o2)N1OS(=O)(=O)O [Compound 736, (2S,5R)-2-(5-(2-((2-hydroxyethyl)amino)ethyl)-1,3,4-oxadiazol-2-yl)-7-oxo-1,6-diazabicyclo[3.2.1]octan-6-yl hydrogen sulfate] | more active than Avibactam | more active than Avibactam |
| CC(C)(N)Cc1nnc([C@@H]2CC[C@@H]3CN2C(=O)N3OS(=O)(=O)O)o1 [Compound 737, (2S,5R)-2-(5-(2-amino-2-methylpropyl)-1,3,4-oxadiazol-2-yl)-7-oxo-1,6-diazabicyclo[3.2.1]octan-6-yl hydrogen sulfate] | more active than Avibactam | more active than Avibactam |
| N=C(N)Nc1nnc([C@@H]2CC[C@@H]3CN2C(=O)N3OS(=O)(=O)O)o1 [Compound 738, (2S,5R)-2-(5-guanidino-1,3,4-oxadiazol-2-yl)-7-oxo-1,6-diazabicyclo[3.2.1]octan-6-yl hydrogen sulfate] | more active than Avibactam | more active than Avibactam |
| N=C(N)NC1(Cc2nnc([C@@H]3CC[C@@H]4CN3C(=O)N4OS(=O)(=O)O)o2)CC1 [Compound 739, (2S,5R)-2-(5-((1-guanidinocyclopropyl)methyl)-1,3,4-oxadiazol-2-yl)-7-oxo-1,6-diazabicyclo[3.2.1]octan-6-yl hydrogen sulfate] | more active than Avibactam | more active than Avibactam |
| O=C1N2C[C@@H](CC[C@H]2c2nnc([C@H]3[C@@H]4CNC[C@@H]43)o2)N1OS(=O)(=O)O [Compound 740, (2S,5R)-2-(5-(3-azabicyclo[3.1.0]hexan-6-yl)-1,3,4-oxadiazol-2-yl)-7-oxo-1,6-diazabicyclo[3.2.1]octan-6-yl hydrogen sulfate] | more active than Avibactam | more active than Avibactam |
| N=C(N)N1CC(Cc2nnc([C@@H]3CC[C@@H]4CN3C(=O)N4OS(=O)(=O)O)o2)C1 [Compound 741, (2S,5R)-2-(5-((1-carbamimidoylazetidin-3-yl)methyl)-1,3,4-oxadiazol-2-yl)-7-oxo-1,6-diazabicyclo[3.2.1]octan-6-yl hydrogen sulfate] | more active than Avibactam | more active than Avibactam |
